Patent US10519193B2, “Steroidal compound, composition containing the same and use thereof” (Shenzhen TargetRx, Inc., priority 2016, dated 2019)
One block for each compound: values may come before it.

Assays:
[1] = system: castration-resistant prostate cancer; conditions: patients, cited from earlier work
[2] = Pharmacokinetic evaluation in rats; assay type: in vivo; conditions: male, Sprague-Dawley, plasma; rat, IV
[3] = Pharmacokinetic evaluation in rats; assay type: in vivo; conditions: male, Sprague-Dawley, plasma, 5 mg/kg; rat, PO
Procedure: 8 male Sprague-Dawley rats (7-8 weeks old, and weighing approximately 210 g) were divided into two groups with 4 rats in each group, a single oral dose of 5 mg/kg given to the two groups were (a) control group: (3β)-17-(3)-pyridyl)androst-5,16-dienol and (b) test group: Examples 1-13, and pharmacokinetic differences between the two groups were compared.
The rats were raised on standard food and water. Fasting was started 16 hours before the test. The drug was dissolved with PEG400 and dimethyl sulfoxide. The blood samples were collected from eyelids at the time points of 0.083 hours, 0.25 hours, 0.5 hours, […], 2 hours, 4 hours, 6 hours, 8 hours, 12 hours, and 24 hours after administration.
Rats were briefly anesthetized after inhalation of diethyl ether and 300 μL of blood sample was collected from the eyelids into test tubes. There was 30 μL of 1% heparin salt solution in the test tube. Tubes were dried at 60° C. overnight before use. After the blood sample was collected at a later time point, the rats were sacrificed after ether anesthesia.
Immediately after the collection of the blood sample, the test tube was gently inverted at least 5 times to ensure sufficient mixing and then placed on ice. The blood sample was centrifuged at 5000 rpm at 4° C. for 5 minutes to separate the plasma from the red blood cells. 100 μL of plasma was aspirated into a clean plastic centrifuge tube with a pipette, marking with the name of the compound and time point. Plasma was stored at −80° C. prior to analysis. The concentration of the compound of the present disclosure in plasma was determined by LC-MS/MS. The pharmacokinetic parameters were calculated based on the blood concentration of each animal at different time points.

[4] = Metabolic stability evaluation in human liver microsomes; assay type: in vitro ADME; conditions: for half-life at 1 μM / microsomal CLint at 1 μM: human liver microsomes, pH 7.4, 1 μM compound, 0.5 mg/mL protein; for half-life at 1 μM / microsomal CLint at 1 μM / clearance compared to the non-deuterated compound / half-life compared to the non-deuterated compound: human liver microsome; for clearance compared to the non-deuterated compound / half-life compared to the non-deuterated compound / half-life of the deuterated prodrug: in words; for half-life of the deuterated prodrug: metabolized abiraterone of the prodrug, liver microsomes, versus abiraterone acetate
Procedure: Experiments in microsomes: Human liver microsomes: 0.5 mg/mL, Xenotech; Coenzyme (NADPH/NADH): 1 mM, Sigma Life Science; Magnesium chloride: 5 mM, 100 mM phosphate buffer (pH 7.4).
Preparation of stock solution: Powder of the example compound was accurately weighed and dissolved in DMSO to 5 mM.
Preparation of phosphate buffer (100 mM, pH7.4): A pre-formulated 0.5M potassium dihydrogen phosphate (150 mL) was mixed with 0.5M dibasic potassium phosphate (700 mL). The pH of the mixture was adjusted to 7.4 with 0.5M dibasic potassium phosphate solution. The mixture was diluted 5-fold with ultrapure water before use, and magnesium chloride was added to obtain a phosphate buffer (100 mM) containing 100 mM potassium phosphate, 3.3 mM magnesium chloride, pH 7.4.
A NADPH regeneration system solution (containing 6.5 mM NADP, 16.5 mM G-6-P, 3 U/mL G-6-P D, 3.3 mM magnesium chloride) was prepared and placed on wet ice prior to use.
Preparation of stop solution: acetonitrile solution containing 50 ng/mL propranolol hydrochloride and 200 ng/mL tolbutamide (internal standard). 25057.5 μL of phosphate buffer (pH 7.4) was taken into a 50 mL centrifuge tube, to which 812.5 μL human liver microsomes were added, and mixed to obtain a liver microsome dilution solution with a protein concentration of 0.625 mg/mL. 25057.5 μL of phosphate buffer (pH 7.4) was taken into a 50 mL centrifuge tube, to which 812.5 μL SD rat liver microsomes were added, and mixed to obtain a liver microsome dilution solution with a protein concentration of 0.625 mg/mL.
Incubation of the samples: The stock solution of the respective compound was respectively diluted to 0.25 mM with an aqueous solution containing 70% acetonitrile, and used as a working solution, ready for use. 398 μL of the dilution solution of human liver microsomes or rat liver microsome were added to a 96-well incubation plate (N=2), respectively, and 2 μL of 0.25 mM working solution was added and mixed.
Metabolic stability assay: 300 μL of pre-chilled stop solution was added to each well of a 96-well deep well plate and placed on ice as a stop plate. The 96 well incubation plate and NADPH regeneration system were placed in a 37° C. water bath box, shaken at 100 rpm and pre-incubated for 5 min. 80 μL of incubation solution was taken out from each well of the incubation plate and added to the stop plate, mixed, and replenished with 20 μL of NADPH regeneration system solution as a 0-min sample. 80 μL of NADPH regeneration system solution was added to each well of the incubation plate to start the reaction and start counting. […] Separately, 100 μL of the reaction solution was taken at 10, 30, and 90 min reaction, respectively, added to a stop plate, and vortexed for 3 minutes to terminate the reaction. The stop plate was centrifuged at 5000×g at 4° C. for 4 min. 100 μL of the supernatant was added to a 96-well plate to which 100 μL of distilled water was previously added, mixed, and analyzed by LC-MS/MS.
Data analysis: The peak areas of the corresponding compound and internal standard were detected by LC-MS/MS system, and the ratio of the peak area of the compound to the internal standard was calculated.

Human CYP17 [5] = molecular target: T1, Human CYP17 (Homo sapiens, UniProt P05093); assay: CYP17 lyase assay; assay type: biochemical; parameters: made in house; host or cells: HEK293 cells (microsomes)
T1 sequence (P05093 1-508): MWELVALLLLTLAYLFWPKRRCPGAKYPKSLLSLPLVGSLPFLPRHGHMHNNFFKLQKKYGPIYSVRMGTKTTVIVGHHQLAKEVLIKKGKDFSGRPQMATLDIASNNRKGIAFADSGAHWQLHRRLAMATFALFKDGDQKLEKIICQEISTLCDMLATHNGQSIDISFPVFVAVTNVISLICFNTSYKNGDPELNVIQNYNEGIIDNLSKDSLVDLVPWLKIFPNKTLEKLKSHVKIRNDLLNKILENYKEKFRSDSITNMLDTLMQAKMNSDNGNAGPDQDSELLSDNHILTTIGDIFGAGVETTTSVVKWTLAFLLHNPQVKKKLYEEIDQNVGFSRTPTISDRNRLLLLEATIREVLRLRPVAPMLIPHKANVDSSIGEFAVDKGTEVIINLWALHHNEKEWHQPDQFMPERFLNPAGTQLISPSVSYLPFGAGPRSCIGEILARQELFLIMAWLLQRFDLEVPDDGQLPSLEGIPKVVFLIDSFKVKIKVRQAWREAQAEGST
Procedure: Human CYP17 was expressed in HEK293 cells and microsome were prepared, which was subsequently used as a source of enzyme for lyase assays. The reaction includes 200 nM [3H]-hydroxy pregnenolone (ARC), 200 nM 17-hydroxy pregnenolone (Sigma), 2 mM NADPH (Calbiochem), and CYP 17-HEK293 microsomes, which were incubated for 20 minutes at room temperature in the presence of DMSO or a test compound. Compounds were dissolved in DMSO and serially diluted. The reaction was stopped by the addition of 0.2N HCl and the product was captured using an anti-mouse YSi SPA Bead (GE) conjugated anti-DHEA monoclonal antibody (Abcam). The signal intensity determined by Packard Top Count was used to calculate the percent inhibition and IC50 values.

Human CYP17 [6] = molecular target: T1, Human CYP17; assay: CYP17 hydroxylase assay; assay type: biochemical; parameters: made in house; host or cells: E. coli (membrane preparation)
Procedure: E. coli was transformed to express active human CYP17, and a membrane prepared from the transformed E. coli was used as a source of the enzyme. […] The reaction mixture was incubated at 37° C. for 120 minutes and 200 μL of 0.02 N HCl in acetonitrile was added to stop the reaction. The sample was then spun at […] and 200 μL of the supernatant was transferred to a clean tube for determination. The reaction product 17-alpha pregnenolone was measured by LC/MS.

[7] = system: PSA protein secretion, LNcaP cells; assay: Inhibition of cellular PSA protein secretion; assay type: cell-based; conditions: Homo sapiens, 1 nM DHT, 48 hours, ELISA, read-out: Inhibition of PSA proteins, IC50
Procedure: Experimental steps: 1. The original culture medium was replaced with culture medium containing 10% Charcoal Stripped FBS, and cells were allowed to starve in culture flasks for 24 hours; 2. Cells were digested and counted, and LNcaP cells were seeded into 96-well plates at 10,000 cells/well and incubated overnight; 3. The DHT and compound were added to the existing medium at a set concentration, the final concentration of DHT was 1 nM, the initial concentration of the compound was 50000 nM, 5-fold dilution was carried out, 8 concentration gradients were obtained, and incubation was carried out for 48 hours; 4. Cell culture supernatants were collected and PSA protein levels were measured according to the ELISA kit instructions. IC50 was calculated using GraphPad Prism based on the inhibition rate at each concentration, and the results were shown in Table 2 below.

[8] = abiraterone acetate plus prednisone
[9] = CYP17-HEK293 microsomes, 20 minutes at room temperature, read-out: CYP17 lyase IC50
[10] = hCYP17 E. coli membrane, 25 μM pregnenolone, 37° C. 120 minutes, read-out: CYP17 hydroxylase IC50

SMILES: CC(=O)O[C@H]1CC[C@@]2(C)C(=CC[C@@H]3[C@@H]2CC[C@]2(C)C(c4cccnc4)=CC[C@@H]32)C1 [Abiraterone acetate, reference compound]
risk of death reduced ([1]; abiraterone acetate plus prednisone vs placebo plus prednisone): 35% | Median survival [1, 8]: 14.8 months | Median survival longer than placebo plus prednisone [1, 8]: 3.9 months | AUC(0-inf) [2]: 192 ng·h/mL | AUC(0-t) [2]: 110 ng·h/mL | Cmax [2]: 10.6 ng/mL | Tmax [2]: 2 h | AUC(0-inf) [3]: 1320 ng·h/mL | AUC(0-t) [3]: 1290 ng·h/mL | Cmax [3]: 506 ng/mL | Tmax [3]: 1.33 h

SMILES: C[C@]12CC[C@H](O)CC1=CC[C@@H]1[C@@H]2CC[C@]2(C)C(c3cccnc3)=CC[C@@H]12 [Abiraterone, (3β)-17-(3-pyridinyl)androst-5,16-dienol, reference compound]
half-life at 1 μM [4]: 0.667 h | microsomal CLint at 1 μM [4]: 34.7 µL/min/mg | IC50 (Human CYP17 [5]; [9]): < 10 nM

SMILES: [2H]c1ccc(C2=CCC3C4CC=C5C[C@@H](O)CC[C@]5(C)C4CC[C@]23C)cn1 (stereo partly drawn) [Example 1, (3β)-17-(3-pyridyl-6-d)androst-5,16-dienol]
clearance compared to the non-deuterated compound [4]: reduced | half-life compared to the non-deuterated compound [4]: prolonged | half-life at 1 μM [4]: > 2.42 h | microsomal CLint at 1 μM [4]: < 9.6 µL/min/mg | IC50 (Human CYP17 [6]; [10]): < 20 nM | IC50 (Human CYP17 [5]; [9]): < 10 nM

SMILES: [2H]c1cncc(C2=CCC3C4CC=C5C[C@@H](O)CC[C@]5(C)C4CC[C@]23C)c1 (stereo partly drawn) [Example 2, (3β)-17-(3-pyridyl-5-d)androst-5,16-dienol]
clearance compared to the non-deuterated compound [4]: reduced | half-life compared to the non-deuterated compound [4]: prolonged | half-life at 1 μM [4]: 1.19 h | microsomal CLint at 1 μM [4]: 19.5 µL/min/mg | IC50 (Human CYP17 [6]; [10]): < 20 nM | IC50 (Human CYP17 [5]; [9]): < 10 nM

SMILES: [2H]c1cncc(C2=CCC3C4CC=C5C[C@@H](OC(C)=O)CC[C@]5(C)C4CC[C@]23C)c1 (stereo partly drawn) [Example 3, (3β)-17-(3-pyridyl-5-d)androst-5,16-dienyl Acetate]
half-life of the deuterated prodrug [4]: significantly prolonged

SMILES: [2H]C1=C(c2cccnc2)[C@@]2(C)CCC3C(CC=C4C[C@@H](O)CC[C@@]43C)C2C1 (stereo partly drawn) [Example 8, (3β)-17-(3-pyridyl)androst-5,16-dienol-16-d]
clearance compared to the non-deuterated compound [4]: reduced | half-life compared to the non-deuterated compound [4]: prolonged | half-life at 1 μM [4]: 0.855 h | microsomal CLint at 1 μM [4]: 24.3 µL/min/mg | IC50 (Human CYP17 [6]): < 20 nM | IC50 (Human CYP17 [5]): < 10 nM

SMILES: [2H]c1cncc(C2=CCC3C4CCC5=CC(=O)CC[C@]5(C)C4CC[C@]23C)c1 (stereo partly drawn) [Example 11, (3β)-17-(3-pyridyl-5-d)androst-4,16-dien-3-one]
IC50 (Human CYP17 [6]; [10]): < 20 nM | IC50 (Human CYP17 [5]; [9]): < 10 nM | IC50 [7]: < 10 nM

Other lines, results leading:

half-life of the deuterated prodrug [4]: significantly prolonged
SMILES: [2H]C([2H])([2H])C(=O)O[C@H]1CC[C@@]2(C)C(=CCC3C2CC[C@]2(C)C(c4cccnc4)=CCC32)C1 (stereo partly drawn) [Example 4, (3β)-17-(3-pyridyl)androst-5,16-dienyl d3-acetate]

AUC(0-inf) [2]: 274 ng·h/mL | AUC(0-t) [2]: 224 ng·h/mL | Cmax [2]: 24.1 ng/mL | Tmax [2]: 3 h | AUC(0-inf) [3]: 2440 ng·h/mL | AUC(0-t) [3]: 2420 ng·h/mL | Cmax [3]: 813 ng/mL | Tmax [3]: 1.67 h
SMILES: [2H]c1ccc(C2=CCC3C4CC=C5C[C@@H](OC(C)=O)CC[C@]5(C)C4CC[C@]23C)cn1 (stereo partly drawn) [Example 5, (3β)-17-(3-pyridyl-6-d)androst-5,16-dienyl Acetate]

half-life of the deuterated prodrug [4]: significantly prolonged
SMILES: [2H]c1cncc(C2=CCC3C4CC=C5C[C@@H](OC(=O)C([2H])([2H])[2H])CC[C@]5(C)C4CC[C@]23C)c1 (stereo partly drawn) [Example 7, (3β)-17-(3-pyridyl-5-d)androst-5,16-dienyl d3-acetate]

half-life of the deuterated prodrug [4]: significantly prolonged | Cmax [2]: 43.6 ng/mL | Tmax [2]: 17.3 h | AUC(0-inf) [3]: 2550 ng·h/mL | AUC(0-t) [3]: 2480 ng·h/mL | Cmax [3]: 549 ng/mL | Tmax [3]: 1.67 h
SMILES: [2H]C1=C(c2cccnc2)[C@@]2(C)CCC3C(CC=C4C[C@@H](OC(=O)C([2H])([2H])[2H])CC[C@@]43C)C2C1 (stereo partly drawn) [Example 9, (3β)-17-(3-pyridyl)androst-5,16-dienyl-16-d d3-acetate]
